In article PMC9969401, “Discovery of 2-(3-Benzamidopropanamido)thiazole-5-carboxylate Inhibitors of the Kinesin HSET (KIFC1) and the Development of Cellular Target Engagement Probes” (Journal of Medicinal Chemistry, 2023):

Legend:
[1] = molecular target: T1, recombinant full-length HSET (Homo sapiens, UniProt Q9BW19); assay: ADP-Glo HSET assay (3 μM ATP), microtubule-stimulated ATPase; assay type: biochemical; details: for IC50: preformed microtubules, 3 μM ATP, read-out: HSET ADP-Glo IC50
T1 construct: 5 nM full-length human N-terminal His-tag HSET; His-tag (N)
T1 sequence (Q9BW19 1-673): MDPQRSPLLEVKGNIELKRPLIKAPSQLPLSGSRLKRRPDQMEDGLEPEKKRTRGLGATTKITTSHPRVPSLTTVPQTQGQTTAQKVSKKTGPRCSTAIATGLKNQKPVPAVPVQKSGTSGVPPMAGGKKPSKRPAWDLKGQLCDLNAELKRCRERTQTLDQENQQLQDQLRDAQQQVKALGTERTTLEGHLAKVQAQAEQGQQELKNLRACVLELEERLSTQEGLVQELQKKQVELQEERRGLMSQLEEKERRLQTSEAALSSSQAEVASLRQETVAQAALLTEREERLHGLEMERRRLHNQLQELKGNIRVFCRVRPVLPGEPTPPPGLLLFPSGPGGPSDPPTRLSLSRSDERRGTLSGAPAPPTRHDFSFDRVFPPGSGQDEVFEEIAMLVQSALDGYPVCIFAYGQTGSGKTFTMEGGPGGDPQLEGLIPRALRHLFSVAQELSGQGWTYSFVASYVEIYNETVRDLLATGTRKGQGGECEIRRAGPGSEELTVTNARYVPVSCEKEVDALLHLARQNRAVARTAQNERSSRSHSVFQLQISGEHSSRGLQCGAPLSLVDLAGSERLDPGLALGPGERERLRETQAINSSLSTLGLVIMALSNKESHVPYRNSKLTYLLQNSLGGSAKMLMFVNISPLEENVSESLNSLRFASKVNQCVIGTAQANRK
Procedure, shortened: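 His-tagged full-length HSET (5 nM) or GST-Eg5 motor domain (4 nM), with 70 μg/mL paclitaxel-stabilised microtubules in HEPES pH 6.8 buffer, was preincubated with compound for 10 min. ATP was then added (3 or 500 μM for HSET, 4.8 μM for Eg5), followed by 80 min at 25 °C and ADP-Glo luminescence. IC50 was fitted with a four-parameter logistic.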

[2] = molecular target: T1, recombinant full-length HSET; assay: ADP-Glo HSET assay (500 μM ATP); assay type: biochemical; details: high ATP concentration of 500 μM; single determination or mean of two
Experimental: (§1) The HSET or Eg5 ATPase activity was measured using the ADP-Glo Kinase Assay kit (Promega, V9102). The assays were run using final concentrations of 5 nM full-length human N-terminal His-tag HSET or 4 nM GST-tagged Eg5 motor domain protein (Cytoskeleton, EG01) and an assay buffer containing 20 mM HEPES pH 6.8, 10 mM MgCl2, 0.25 mM EGTA, 0.4 mM Triton X-100, and 1 mM DTT. Preformed microtubules (Universal Biologicals Cambridge, bovine MT001-XL, or porcine MT002-XL), which were reconstituted in 15 mM PIPES pH 7, 1 mM MgCl2, and 20 μM paclitaxel, were present at a final assay concentration of 70 μg/mL. A reaction volume of 5 μL was used in Proxiplate 384 plus white assay plates (PerkinElmer, 6008280). To measure compound inhibition, 100 nL of compound dissolved in DMSO or DMSO alone was preincubated with the HSET and microtubules for 10 min before 3 μM Ultra-Pure ATP was added to start the ATPase reaction for the 3 μM ATP HSET assay. For the 500 μM ATP HSET assay, the addition of 500 μM Ultra-Pure ATP was used. For the Eg5 ATPase assay, 4.8 μM Ultra-Pure ATP was used. All reactions were incubated at 25 °C for 80 min and then stopped by the addition of 5 μL of the ADP-Glo reagent. 10 μL of Kinase Detection Reagent was then added after a further 45 min of incubation. The luminescence was read after 45 min on a PheraStar FSX plate reader (BMG Labtech). The data processing was performed using Dotmatics Studies software package. Percentage inhibition was determined based on normalization to high controls (0% inhibition, all reagents with 100 nL of DMSO alone) and low controls (100% inhibition […], without HSET). The IC50 values for each compound were determined using a four-parameter logistic curve fit of % inhibition versus concentration.

[3] = molecular target: T2, GST-tagged Eg5 motor domain (Homo sapiens, UniProt P52732); assay: ADP-Glo Eg5 assay (4.8 μM ATP); assay type: biochemical; details: preformed microtubules, 4.8 μM ATP (Table 4)
T2 construct: 4 nM GST-tagged Eg5 motor domain protein (Cytoskeleton, EG01); purchased Cytoskeleton EG01
T2 sequence (P52732 18-359 limits assumed): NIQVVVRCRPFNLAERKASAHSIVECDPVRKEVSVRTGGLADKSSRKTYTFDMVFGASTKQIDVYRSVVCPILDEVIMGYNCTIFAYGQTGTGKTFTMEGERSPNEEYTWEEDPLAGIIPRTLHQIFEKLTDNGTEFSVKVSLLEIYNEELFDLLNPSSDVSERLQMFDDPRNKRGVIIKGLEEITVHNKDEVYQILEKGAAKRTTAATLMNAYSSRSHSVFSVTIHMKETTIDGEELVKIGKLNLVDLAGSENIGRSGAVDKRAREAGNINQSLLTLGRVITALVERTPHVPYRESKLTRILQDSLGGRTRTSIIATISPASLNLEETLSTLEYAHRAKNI
Experimental: as §1

[4] = test system: centrosome-amplified (4NCA) DLD1 cells; assay: Multipolar spindle assay (4NCA cell line); assay type: cell-based, human
Description: (§2) The cellular models consisted of chromosomally stable human colon cancer DLD1 diploid (2N) and tetraploid (4N) cells, along with tetraploid centrosome -amplified (4NCA) DLD1 cells and DLD1 HSET knockout (KO) cells. DLD1 2N and 4N cells were generated and characterized as previously described.[27],[41],[42] In order to generate 4NCA cells, we used dihydro-cytochalasin B (DCB) to transiently block cytokinesis and induce tetraploidisation and centrosome amplification in DLD1 cells. Centrosome amplification in 4NCA cells is transient and therefore they were generated from 2N cells for each run of the assay.[27] The DLD1 HSET KO cells were knockout clones generated by CRISPR and validated by sequencing to have a homozygous deletion in the KIFC1 gene.
(§3) Inhibition of HSET-mediated clustering was measured using a phenotypic assay measuring the formation of multipolar metaphase spindles in DLD1 cells with (4NCA) or without (4N) centrosome amplification. 4NCA cells were generated by treating 2N DLD1 cells with 2 μΜ DCB for 24 h, washed, and released in growth media for 24 h. 4N and 4NCA DLD1 cells were plated in 96-well ibidi μ-Clear plates (IB-89626, ibidi) with a no. 1.5 polymer coverslip bottom with optimal imaging properties. To enrich the mitotic population, cells were first treated for 3.5 h with 8 μM pro-TAME (I-440-01M, R&D system), an inhibitor of APC/C that transiently arrests cells in metaphase without affecting the structure of the spindle. Following the initial arrest, cells were treated with HSET compounds in the presence of 8 μM MG-132 (S2619, SelleckChem), a proteasome inhibitor that helps to maintain the metaphase arrest, where the number of spindle poles/cell can be optimally quantified by an automated segmentation analysis.
(§4) Cells were then fixed in methanol and stained for 3 h for mitotic pole marker aurora A (1:1000 610939 mouse anti-IAK1, BD Biosciences) and phosphorylated histone H3 (1:1500 ab47297 anti-histone H3 pS10, Abcam) as a marker of mitotic cells in 1.5% FBS in PBS. Following primary antibody treatment, cells were incubated with secondary antibodies Alexa Fluor 488 goat antimouse and Alexa Fluor 555 goat antirabbit (1:1500, A11029 and A21429, respectively, Life Technologies) together with 1 μg/mL DAPI (D9542, Sigma) in 1.5% FBS in PBS. Image acquisition was performed at 10× using the GE INCELL 2200 High Content Imaging System (Cytiva) and analyzed using the InCell Investigator software. Mitotic cells were identified by high pHH3 staining and were scored as multipolar if they had more than two mitotic spindle poles. The percentage of multipolar mitoses was calculated by dividing the number of multipolar mitoses by the total of all visible mitoses in one well of a 96-well plate (n > 100 for each replicate, two replicates per concentration point).

[5] = test system: non-centrosome amplified DLD1 (4N) cells; assay: Multipolar spindle assay (4N cell line); assay type: cell-based, human
Description: as §2, §3, §4

[6] = molecular target: T3, full-length HSET (FL HSET) (Homo sapiens, UniProt Q9BW19); assay: Fluorescence polarization probe Kd determination; assay type: binding
T3 construct: 5 nM full-length human N-terminal His-tag HSET; His-tag (N)
T3 sequence (Q9BW19 1-673): T1 sequence (Q9BW19 1-673)
Experimental: Steady-state fluorescence polarization binding assays were performed using the fluorescence-tagged probe 37. All assays were performed in a black ProxiPlate-384 Plus plate (PerkinElmer, 6008260) in a 10 μL volume in buffer containing 20 mM HEPES pH 7.5, 200 mM NaCl, 1 mM TCEP, 10 mM MgCl2, 0.1 mM Triton X-100, and 5% glycerol (v/v). Full-length human N-terminal His-tag HSET was used, with a final concentration of 2.5 nM 37 probe. The assays were sealed and incubated in the dark at 25 °C and then the FP signal was read on an EnVision multimode plate reader (PerkinElmer Life Sciences) using excitation at 620 nm and parallel and perpendicular emissions at 688 nm. All data processing was done using Prism (GraphPad Software).
For the probe Kd determinations, FL HSET final concentrations were used between 2000 and 0.5 nM. When present, preformed microtubules (Universal Biologicals Cambridge, bovine MT001-XL or porcine MT002-XL), which were reconstituted in 15 mM PIPES pH 7, 20 μM paclitaxel, or reconstitution buffer alone, were preincubated with HSET for 10 min and then added to the probe. The plate was read after 3 h of incubation in the dark at 25 °C. Kd values were determined using a 1:1 site binding model of the fluorescence polarization versus protein concentration.

DLD1 cells (4NCA and 4N) = assay type: cell-based; details: human
Experimental: as §3, §4
3. […]

Row | SMILES | LE ([1]; LE = −1.4Log(IC50 [M])/number of non-hydrogen atoms (Table 2)) | LLE ([1]; LLE = −Log(IC50 [M]) – cLogP (MoKa) (Table 2)) | IC50 ([1]; mean (±SD) n ≥ 3 (Table 4)) | IC50 ([1]; mean (±SD) n ≥ 3, >200 from a single determination (Table 2)) | IC50 [2] | IC50 [3] | % multipolarity above baseline @ 15 μM (4NCA cells) ([4]; 15 μM, 4NCA DLD1 cells (Table 4)) | % multipolarity above baseline @ 15 μM (4NCA cells) ([4]; 15 µM, 4NCA cells, supplementary CSV) | increase in mitotic spindle multipolarity (4NCA) ([4]; 15 μM, centrosome-amplified (4NCA) DLD1 cell line) | % Multipolarity above baseline @ 15 mM (4N cells) ([5]; 15 μM, 4N cells, supplementary CSV) | effect on multipolar mitoses (4N), in words ([5]; 15 μM, non-centrosome amplified DLD1 (4N) cell line) | % multipolarity above baseline @ 15 μM (4N cells) ([5]; 4N DLD1 cells (Table 4)) | IC50 ([1]; mean (±SD) n ≥ 3 (37 n = 2, 38 single determination) (Table 3)) | Kd ([6]; FL HSET + MT buffer only) | Kd ([6]; isolated full-length HSET, no microtubules) | LE ([1]; LE = −1.4Log(IC50 [M])/number of non-hydrogen atoms (Table 1)) | LLE ([1]; LLE = −Log(IC50 [M]) – cLogP (MoKa) (Table 1)) | IC50 ([1]; mean (±SD) n ≥ 3, >200 from a single determination (Table 1)) | concentration at which cellular toxicity observed (DLD1 cells (4NCA and 4N))
1 | CCOC(=O)c1sc(NC(=O)CCNC(=O)c2cccc(-c3noc(C)n3)c2)cc1C [Compound 26, Ethyl 3-Methyl-5-(3-(3-(5-methyl-1,2,4-oxadiazol-3-yl)benzamido)propanamido)thiophene-2-carboxylate] | 0.32 | 3.7 | 93 nM | 93 nM | 332 nM | > 200000 nM | 13% | 13% | ~10% | 1% | no increases in multipolar mitoses | 1% | – | – | – | – | – | – | –
2 | CCCOC(=O)c1sc(NC(=O)C[C@H](CCCNC(=O)CCCCC[N+]2=C(/C=C/C=C/C=C3/N(C)c4ccc(S(=O)(=O)O)cc4C3(C)C)C(C)(C)c3cc(S(=O)(=O)O)ccc32)NC(=O)c2cccc(-c3noc(C)n3)c2)nc1C [Compound 37, 3,3-Dimethyl-1-(6-(((S)-4-(3-(5-methyl-1,2,4-oxadiazol-3-yl)benzamido)-6-((4-methyl-5-(propoxycarbonyl)thiazol-2-yl)amino)-6-oxohexyl)amino)-6-oxohexyl)-5-sulfo-2-((1E,3E)-5-((E)-1,3,3-trimethyl-5-sulfoindolin-2-ylidene)penta-1,3-dien-1-yl)-3H-indol-1-ium] | – | – | – | – | – | – | – | – | – | – | – | – | 257 nM | 675 ± 148 nM | 371 nM | – | – | – | –
3 | CCCc1cc(C(=O)N[C@H](Cc2ccc(-c3cccc(OC(F)(F)F)c3)nc2)C(=O)N[C@@H]2CCNC2)sc1C [Compound 1, 5-Methyl-6N-((R)-1-oxo-1-((R)-pyrrolidin-3-ylamino)-3-(6-(3-(trifluoromethoxy)phenyl)pyridin-3-yl)propan-2-yl)-4-propylthiophene-2-carboxamide, reference compound] | – | – | 171 nM | – | 825 nM | 35600 nM | – | – | – | – | – | – | – | – | – | 0.25 | 1.5 | 171 nM | 6 µM
